Experimental data published in US20200361895A1, “NOVEL SULFONAMIDE CARBOXAMIDE COMPOUNDS” (Inflazome Limited, priority 2017, published 2020).
Structures can show the parent of a compound that is named as a salt.

Experiments:
[1] = target: T1, NLRP3 (Homo sapiens, UniProt Q96P20); experiment: THP-1 cells pyroptosis assay (LPS + nigericin, resazurin readout; THP IC50); type: cell-based; parameters: Seed THP-1 cells (25,000 cells/well) containing 1.0 μg/ml LPS in 40 μl of RPMI medium; host or cells: THP-1 cells
T1 sequence (Q96P20 whole entry): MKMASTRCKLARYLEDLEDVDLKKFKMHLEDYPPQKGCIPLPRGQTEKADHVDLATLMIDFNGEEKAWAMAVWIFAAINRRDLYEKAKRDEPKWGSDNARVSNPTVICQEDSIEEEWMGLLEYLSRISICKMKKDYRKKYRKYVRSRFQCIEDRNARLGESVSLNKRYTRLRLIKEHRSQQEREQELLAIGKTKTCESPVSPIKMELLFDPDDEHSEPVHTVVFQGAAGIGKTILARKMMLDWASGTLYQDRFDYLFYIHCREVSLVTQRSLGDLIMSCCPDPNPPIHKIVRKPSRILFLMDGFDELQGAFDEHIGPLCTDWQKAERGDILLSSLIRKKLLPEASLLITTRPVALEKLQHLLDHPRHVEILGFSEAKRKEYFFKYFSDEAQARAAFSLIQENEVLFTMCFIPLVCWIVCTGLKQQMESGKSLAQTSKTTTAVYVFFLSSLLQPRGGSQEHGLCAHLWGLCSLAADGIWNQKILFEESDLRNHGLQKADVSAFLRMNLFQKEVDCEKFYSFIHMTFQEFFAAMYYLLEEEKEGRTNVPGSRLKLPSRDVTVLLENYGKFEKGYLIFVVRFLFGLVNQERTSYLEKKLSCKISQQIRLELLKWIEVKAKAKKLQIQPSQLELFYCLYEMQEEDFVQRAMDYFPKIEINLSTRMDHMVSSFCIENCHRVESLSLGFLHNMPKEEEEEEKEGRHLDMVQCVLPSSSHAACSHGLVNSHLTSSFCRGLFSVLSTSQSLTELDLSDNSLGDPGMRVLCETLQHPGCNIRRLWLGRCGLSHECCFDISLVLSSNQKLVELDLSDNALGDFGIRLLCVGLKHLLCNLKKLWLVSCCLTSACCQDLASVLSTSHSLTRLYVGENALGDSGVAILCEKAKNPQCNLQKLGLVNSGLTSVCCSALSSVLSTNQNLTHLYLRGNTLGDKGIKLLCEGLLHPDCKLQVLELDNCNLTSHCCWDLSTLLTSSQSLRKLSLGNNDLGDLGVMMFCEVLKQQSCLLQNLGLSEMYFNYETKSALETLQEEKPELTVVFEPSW
How it was run: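 IC50 from 4-parameter fit of resazurin fluorescence (100 μM, 1-2 hrs), reflecting surviving cells after pyroptosis. LPS-primed (1 μg/ml) THP-1 cells in FBS-free RPMI got compound for 3 hrs at 37° C (top 10 μM, half-log, 8 points), then nigericin 5 μM for 1 hr.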

[2] = target: T1, NLRP3; experiment: Human whole blood IL1β release assay (LPS + nigericin, AlphaLisa IL-1β; HWB IC50); type: cell-based; parameters: Human whole blood in Li-heparin tubes was obtained from healthy donors from a volunteer donor panel; from tissue; host or cells: human whole blood from healthy donors; details: IL-1β release
Experimental: For systemic delivery, the ability to inhibit NLRP3 when the compounds are present within the bloodstream is of great importance. For this reason, the NLRP3 inhibitory activity of a number of compounds in human whole blood was investigated in accordance with the following protocol.
Human whole blood in Li-heparin tubes was obtained from healthy donors from a volunteer donor panel. • 1. Plate out 80 μl of whole blood containing 1 μg/ml of LPS in 96-well, clear bottom cell culture plate (Corning #3585) • 2. Add 10 μl compound (8 points half-log dilution with 10 μM top dose) or vehicle (DMSO 0.1% FAC) to the appropriate wells • 3. Incubate for 3 hrs at 37° C., 5% CO2 • 4. Add 10 μl nigericin (Sigma #N7143) (10 μM FAC) to all wells • 5. Incubate for 1 hr at 37° C., 5% CO2 • 6. At the end of the incubation period, spin plates at 300×g for 5 mins to pellet cells and remove 20 μl of supernatant and add to 96-well v-bottom plates for IL-1β analysis (note: these plates containing the supernatants can be stored at −80° C. to be analysed at a later date) • 7. IL-1β was measured according to the manufacturer protocol (Perkin Elmer-AlphaLisa IL-1 Kit AL220F-5000) • 8. IC50 data is fitted to a non-linear regression equation (log inhibitor vs response-variable slope 4-parameters)

Row | Compound | IC50 [1] | IC50 [2]
1 | O=C(Nc1c(-c2ccncc2)ccc2c1CCC2)NS(=O)(=O)c1ccn(C2CCC2)n1 [Example 304, 1-Cyclobutyl-N-((5-(pyridin-4-yl)-2,3-dihydro-1H-inden-4-yl)carbamoyl)-1H-pyrazole-3-sulfonamide] | ≤ 500 nM | ≤ 500 nM
2 | CC(C)Oc1cc(-c2cc(F)cc(C(C)C)c2NC(=O)NS(=O)(=O)c2ccn(C(C)C)n2)ccn1 [Example 27, N-((4-Fluoro-2-(2-isopropoxypyridin-4-yl)-6-iso-propyl-phenyl)carbamoyl)-1-iso-propyl-1H-pyrazole-3-sulfonamide] | ≤ 500 nM | ≤ 5000 nM
3 | CC(C)N1CC(S(=O)(=O)NC(=O)Nc2c(-c3ccncc3)cc(F)c3c2CCC3)C1 [Example 77, N-((7-Fluoro-5-(pyridin-4-yl)-2,3-dihydro-1H-inden-4-yl)carbamoyl)-1-isopropylazetidine-3-sulfonamide] | ≤ 500 nM | ≤ 1000 nM
4 | CC(C)n1ccc(S(=O)(=O)NC(=O)Nc2c(-c3cccnc3)cc(F)c3c2CCC3)n1 [Example 206, N-((7-Fluoro-5-(pyridin-3-yl)-2,3-dihydro-1H-inden-4-yl)carbamoyl)-1-isopropyl-1H-pyrazole-3-sulfonamide] | ≤ 500 nM | ≤ 5000 nM
5 | CCOc1cc(-c2ccc3c(c2NC(=O)NS(=O)(=O)c2ccn(C(C)C)n2)CCC3)ccn1 [Example 214, N-((5-(2-Ethoxypyridin-4-yl)-2,3-dihydro-1H-inden-4-yl)carbamoyl)-1-isopropyl-1H-pyrazole-3-sulfonamide] | ≤ 500 nM | ≤ 1000 nM
6 | CCC(c1cc(S(=O)(=O)NC(=O)Nc2c(-c3ccnc(OC)c3)ccc3c2CCC3)nn1C(C)C)N(C)C (centres unmarked) [Example 192, 5-(1-(Dimethylamino)propyl)-1-isopropyl-N-((5-(2-methoxypyridin-4-yl)-2,3-dihydro-1H-inden-4-yl)carbamoyl)-1H-pyrazole-3-sulfonamide] | ≤ 500 nM | ≤ 500 nM
7 | COc1cc(-c2ccc3c(c2NC(=O)NS(=O)(=O)c2ccn(C(C)(C)C)n2)CCC3)ccn1 [Example 252, 1-(tert-Butyl)-N-((5-(2-methoxypyridin-4-yl)-2,3-dihydro-1H-inden-4-yl)carbamoyl)-1H-pyrazole-3-sulfonamide, sodium salt] | ≤ 500 nM | ≤ 500 nM
8 | COc1cc(-c2ccc3c(c2NC(=O)NS(=O)(=O)c2ccn(CC(C)(C)OC)n2)CCC3)ccn1 [Example 185, 1-(2-Methoxy-2-methylpropyl)-N-((5-(2-methoxypyridin-4-yl)-2,3-dihydro-1H-inden-4-yl)carbamoyl)-1H-pyrazole-3-sulfonamide] | ≤ 500 nM | ≤ 500 nM
9 | COc1cc(-c2ccc3c(c2NC(=O)NS(=O)(=O)CCOC(C)C)CCC3)ccn1 [Example 174, 2-Isopropoxy-N-((5-(2-methoxypyridin-4-yl)-2,3-dihydro-1H-inden-4-yl)carbamoyl)ethanesulfonamide, sodium salt] | ≤ 500 nM | ≤ 1000 nM
10 | COc1cc(-c2ccc3c(c2NC(=O)NS(=O)(=O)c2ccn(C(C)(C)C#N)n2)CCC3)ccn1 [Example 201, 1-(2-Cyanopropan-2-yl)-N-((5-(2-methoxypyridin-4-yl)-2,3-dihydro-1H-inden-4-yl)carbamoyl)-1H-pyrazole-3-sulfonamide, sodium salt] | ≤ 500 nM | ≤ 500 nM
11 | CC(C)n1ccc(S(=O)(=O)NC(=O)Nc2c(-c3ccnc(CO)c3)ccc3c2CCC3)n1 [Example 298, N-((5-(2-(Hydroxymethyl)pyridin-4-yl)-2,3-dihydro-1H-inden-4-yl)carbamoyl)-1-isopropyl-1H-pyrazole-3-sulfonamide] | ≤ 500 nM | ≤ 1000 nM
12 | COCCOc1cc(-c2ccc3c(c2NC(=O)NS(=O)(=O)c2ccn(C(C)C)n2)CCC3)ccn1 [Example 300, 1-Isopropyl-N-((5-(2-(2-methoxyethoxy)pyridin-4-yl)-2,3-dihydro-1H-inden-4-yl)carbamoyl)-1H-pyrazole-3-sulfonamide, sodium salt] | ≤ 500 nM | ≤ 1000 nM
13 | CN(C)c1cnc(S(=O)(=O)NC(=O)Nc2c(-c3ccncc3)cc(F)c3c2CCC3)cn1 [Example 109, 5-(Dimethylamino)-N-((7-fluoro-5-(pyridin-4-yl)-2,3-dihydro-1H-inden-4-yl)carbamoyl)pyrazine-2-sulfonamide] | ≤ 500 nM | ≤ 5000 nM
14 | COc1cc(-c2ccc3c(c2NC(=O)NS(=O)(=O)c2ccn(C4(CN(C)C)CCC4)n2)CCC3)ccn1 [Example 247, 1-(1-((Dimethylamino)methyl)cyclobutyl)-N-((5-(2-methoxypyridin-4-yl)-2,3-dihydro-1H-inden-4-yl)carbamoyl)-1H-pyrazole-3-sulfonamide, sodium salt] | ≤ 500 nM | ≤ 500 nM
15 | COc1cc(-c2ccc3ccccc3c2NC(=O)NS(=O)(=O)c2ccn(C(C)C)n2)ccn1 [Example 209, 1-Isopropyl-N-((2-(2-methoxypyridin-4-yl)naphthalen-1-yl)carbamoyl)-1H-pyrazole-3-sulfonamide] | ≤ 500 nM | ≤ 5000 nM
16 | COc1cc(-c2cc(F)cc(C(C)C)c2NC(=O)NS(=O)(=O)c2cc(C3(OC)COC3)n(C)n2)ccn1 [Example 52, N-((4-Fluoro-2-isopropyl-6-(2-methoxypyridin-4-yl)phenyl)carbamoyl)-5-(3-methoxyoxetan-3-yl)-1-methyl-1H-pyrazole-3-sulfonamide] | ≤ 500 nM | ≤ 500 nM
17 | COc1cc(-c2ccc3c(c2NC(=O)NS(=O)(=O)c2cc(CN(C)C)n(C(C)C)n2)CCC3)ccn1 [Example 193, 5-((Dimethylamino)methyl)-1-isopropyl-N-((5-(2-methoxypyridin-4-yl)-2,3-dihydro-1H-inden-4-yl)carbamoyl)-1H-pyrazole-3-sulfonamide] | ≤ 500 nM | ≤ 500 nM
18 | COc1cc(-c2ccc3c(c2NC(=O)NS(=O)(=O)CCOC(C)C)CCO3)ccn1 [Example 175, 2-Isopropoxy-N-((5-(2-methoxypyridin-4-yl)-2,3-dihydrobenzofuran-4-yl)carbamoyl)ethanesulfonamide, sodium salt] | ≤ 500 nM | ≤ 500 nM
19 | COc1cc(-c2ccc3c(c2NC(=O)NS(=O)(=O)c2coc(C4CC4)n2)CCC3)ccn1 [Example 293, 2-Cyclopropyl-N-((5-(2-methoxypyridin-4-yl)-2,3-dihydro-1H-inden-4-yl)carbamoyl)oxazole-4-sulfonamide, sodium salt] | ≤ 500 nM | ≤ 5000 nM
20 | CC(C)Oc1cc(-c2ccc3c(c2NC(=O)NS(=O)(=O)c2ccn(C(C)C)n2)CCC3)ccn1 [Example 216, N-((5-(2-Isopropoxypyridin-4-yl)-2,3-dihydro-1H-inden-4-yl)carbamoyl)-1-isopropyl-1H-pyrazole-3-sulfonamide] | ≤ 500 nM | ≤ 5000 nM
21 | Cc1cc(C)nc(S(=O)(=O)NC(=O)Nc2c(-c3ccncc3)cc(F)c3c2CCC3)n1 [Example 117, N-((7-Fluoro-5-(pyridin-4-yl)-2,3-dihydro-1H-inden-4-yl)carbamoyl)-4,6-dimethylpyrimidine-2-sulfonamide] | ≤ 500 nM | ≤ 1000 nM
22 | CN(C)c1cnnc(S(=O)(=O)NC(=O)Nc2c(-c3ccncc3)cc(F)c3c2CCC3)c1 [Example 121, 5-(Dimethylamino)-N-((7-fluoro-5-(pyridin-4-yl)-2,3-dihydro-1H-inden-4-yl)carbamoyl) pyridazine-3-sulfonamide] | ≤ 500 nM | ≤ 1000 nM
23 | COc1cc(-c2cc(Cl)c3c(c2NC(=O)NS(=O)(=O)c2ccn(C(C)C)n2)CCC3)ccn1 [Example 226, N-((7-Chloro-5-(2-methoxypyridin-4-yl)2,3-dihydro-1H-inden-4-yl)carbamoyl)-1-isopropyl-1H-pyrazole-3-sulfonamide, sodium salt] | ≤ 500 nM | ≤ 1000 nM
24 | COc1cc(-c2ccc3c(c2NC(=O)NS(=O)(=O)c2cn(C(C)C)cn2)CCC3)ccn1 [Example 233, 1-Isopropyl-N-((5-(2-methoxypyridin-4-yl)-2,3-dihydro-1H-inden-4-yl)carbamoyl)-1H-imidazole-4-sulfonamide] | ≤ 500 nM | ≤ 1000 nM
25 | COc1cc(-c2ccc3c(c2NC(=O)NS(=O)(=O)c2ccc(C(=O)N(C)C)cc2)CCC3)ccn1 [Example 308, 4-(N-((5-(2Mmethoxypyridin-4-yl)-2,3-dihydro-1H-inden-4-yl)carbamoyl)sulfamoyl)-N,N-dimethylbenzamide, sodium salt] | ≤ 500 nM | ≤ 1000 nM
